Laboratory results taken from EP0336958B1, “PRODUCT CONTAINING AS ACTIVE PRINCIPLES: A) A PEPTIDE HAVING AN ACTIVITY OF THE TYPE OF THAT OF HUMAN GAMMA INTERFERON, B) HYDROXYUREA” (priority 1987, dated 1989).

Test system: cellules HL-60
Conditions: hydroxyurée alone, 150 uM

NC(=O)NO [hydroxyurée]
inhibition de la croissance des cellules HL-60: inhibition suffisante de la croissance des cellules HL-60
